# Data from US9179694B2, “Method and composition for enhancing milk production and milk component concentrations” (PURINA ANIMAL NUTRITION LLC, priority 2003, dated 2015).
# Assay: Dry matter feed intake in sorbitol feeding trials
# Assay type: in vivo, Holstein cows
# Experimental: To determine the dry matter weight (or dry matter basis or dry basis) of a particular sample, the sample is first weighed. The weighed sample is then dried in an oven at a temperature that is adequate to drive off moisture from the sample without degrading the sample components, such as a temperature ranging from about 100° C. to about 110° C. The oven drying is continued until the weight of the dried sample remains constant, despite additional oven drying. During the pre-partum period, for all cows utilized in Example One or Example Two, the pre-partum control feed, as modified to include any sorbitol indicated above for the different trials, was placed in the feeding troughs of the different cows participating in the different trials once daily in the morning. Thereafter, these different pre-partum feeds (the pre-partum control feed, including any incorporated sorbitol dosage of a particular trial during the pre-partum period) of the different trials were lightly stirred, separately and individually, in front of the cows of the different trials three times per day during the pre-partum period to encourage additional feed ingestion by the cows. Leftover rations from the previous day's feeding were collected and weighed from each feeding trough during the pre-partum period, prior to feeding the test cows on a subsequent day. The cows of the different trials received a sufficient amount of the pre-partum to ensure at least about ten weight percent of the pre-partum feeds of the different trials remained in the feeding troughs of each trial each day of the pre-partum period, based on the amount of the different pre-partum feeds of the different trials provided at the beginning of each day. Feed refusals were measured daily during the pre-partum period, and water was supplied ad libitum. During the early post-partum period, for all cows utilized in Example One or Example Two, the first post-partum control feed, as modified to include any sorbitol indicated above for the different trials, was placed in the feeding troughs of the different cows participating in the different trials once daily in the morning. Thereafter, these first post-partum feeds (the first post-partum control feed, including any incorporated sorbitol dosage of a particular trial during the early post-partum period) of the different trials were lightly stirred, separately and individually, in front of the cows of the different trials three times per day during the early post-partum period to encourage additional feed ingestion by the cows. Leftover rations from the previous day's feeding were collected and weighed from each feeding trough during the early post-partum period, prior to feeding the test cows on a subsequent day. The cows of the different trials received a sufficient amount of the first post-partum feed to ensure at least about ten weight percent of the first post-partum feeds of the different trials remained in the feeding troughs of each trial each day of the early post-partum period, based on the amount of the different first post-partum feeds of the different trials provided at the beginning of each day. Feed refusals were measured daily during the early post-partum period, and water was supplied ad libitum. […] Thereafter, the second post-partum control feed were lightly stirred, separately and individually, in front of the cows of the different trials three times per day during the weeks +5 through +8 to encourage additional feed ingestion by the cows. Leftover rations from the previous day's feeding were collected and weighed from each feeding trough during weeks +5 through +8, prior to feeding the test cows on a subsequent day. […]
smiles,measurement,setting,value
OC[C@@H](O)[C@@H](O)[C@H](O)[C@@H](O)CO [sorbitol],Dry Matter Feed Intake,"Pre/Post Trial #1 (150/125/100 g/day in wk −3..−1/+1..+4/+5..+8), multiparious cows, week +7, two-trial comparison with Control Trial #2 (Table 22)",54.9 lbs/day
same,Dry Matter Intake,"Pre/Post Trial #1 (150/125/100 g/day in wk −3..−1/+1..+4/+5..+8), multiparious cows, week +8",57.1 lbs/day
same,Dry Matter Feed Intake,"Pre/Post Trial #1 (150/125/100 g/day in wk −3..−1/+1..+4/+5..+8), multiparious cows, week +8, two-trial comparison with Control Trial #2 (Table 22)",57.4 lbs/day
same,Dry Matter Intake,"Pre/Post Trial #1 (150/125/100 g/day in wk −3..−1/+1..+4/+5..+8), multiparious cows, week −1",33.3 lbs/day
same,Dry Matter Feed Intake,"Pre/Post Trial #1 (150/125/100 g/day in wk −3..−1/+1..+4/+5..+8), multiparious cows, week −1, two-trial comparison with Control Trial #2 (Table 22)",33.4 lbs/day
same,Dry Matter Intake,"Pre/Post Trial #1 (150/125/100 g/day in wk −3..−1/+1..+4/+5..+8), multiparious cows, week −2",34.6 lbs/day
same,Dry Matter Feed Intake,"Pre/Post Trial #1 (150/125/100 g/day in wk −3..−1/+1..+4/+5..+8), multiparious cows, week −2, two-trial comparison with Control Trial #2 (Table 22)",35.2 lbs/day
same,Change in Dry Matter Feed Intake,"Pre/Post Trial #1 (150/125/100 g/day in wk −3..−1/+1..+4/+5..+8), multiparious cows, week −2 versus −1",−1.39 lbs/day
same,Change in Dry Matter Feed Intake,"Pre/Post Trial #1 (150/125/100 g/day in wk −3..−1/+1..+4/+5..+8), multiparious cows, week −2 versus −1, two-trial comparison with Control Trial #2 (Table 22)",−1.83 lbs/day
same,Dry Matter Intake,"Pre/Post Trial #1 (150/125/100 g/day in wk −3..−1/+1..+4/+5..+8), multiparious cows, week −3",29.6 lbs/day
same,Dry Matter Feed Intake,"Pre/Post Trial #1 (150/125/100 g/day in wk −3..−1/+1..+4/+5..+8), multiparious cows, week −3, two-trial comparison with Control Trial #2 (Table 22)",30.7 lbs/day
same,Dry Matter Intake,"Pre/Post Trial #1 (150/125/100 g/day in wk −3..−1/+1..+4/+5..+8), multiparious cows, weeks +1 through +4",45.4 lbs/day
same,Dry Matter Feed Intake,"Pre/Post Trial #1 (150/125/100 g/day in wk −3..−1/+1..+4/+5..+8), multiparious cows, weeks +1 through +4, two-trial comparison with Control Trial #2 (Table 22)",45.7 lbs/day
same,Dry Matter Intake,"Pre/Post Trial #1 (150/125/100 g/day in wk −3..−1/+1..+4/+5..+8), multiparious cows, weeks +1 through +8",50.1 lbs/day
same,Dry Matter Feed Intake,"Pre/Post Trial #1 (150/125/100 g/day in wk −3..−1/+1..+4/+5..+8), multiparious cows, weeks +1 through +8, two-trial comparison with Control Trial #2 (Table 22)",50.4 lbs/day
same,Dry Matter Intake,"Pre/Post Trial #1 (150/125/100 g/day in wk −3..−1/+1..+4/+5..+8), multiparious cows, weeks +5 through +8",54.9 lbs/day
same,Dry Matter Feed Intake,"Pre/Post Trial #1 (150/125/100 g/day in wk −3..−1/+1..+4/+5..+8), multiparious cows, weeks +5 through +8, two-trial comparison with Control Trial #2 (Table 22)",55.3 lbs/day
same,Dry Matter Intake,"Pre/Post Trial #1 (150/125/100 g/day in wk −3..−1/+1..+4/+5..+8), multiparious cows, weeks −3 through −1",32.6 lbs/day
same,Dry Matter Feed Intake,"Pre/Post Trial #1 (150/125/100 g/day in wk −3..−1/+1..+4/+5..+8), multiparious cows, weeks −3 through −1, two-trial comparison with Control Trial #2 (Table 22)",33.0 lbs/day
same,greater increase of dry matter feed intake,"Pre/Post Trial #1 (150/125/100 g/day) compared to Control Trial #2, multiparous cows, week −1 before calving versus week +1 after calving",3.19 pounds per day
same,greater daily rate of dry matter feed intake,"Pre/Post Trial #1 (150/125 g/day pre-/early post-partum) versus Pre/Post Trial #2 (75/75 g/day), multiparious cows, early post-partum period (weeks +1 through +4)",7.6%
same,Dry Matter Intake,"Pre/Post Trial #2 (75/75/100 g/day in wk −3..−1/+1..+4/+5..+8), multiparious cows, week +1",33.1 lbs/day
same,Change in Dry Matter Feed Intake,"Pre/Post Trial #2 (75/75/100 g/day in wk −3..−1/+1..+4/+5..+8), multiparious cows, week +1 versus −1",0.72 lbs/day
same,Dry Matter Intake,"Pre/Post Trial #2 (75/75/100 g/day in wk −3..−1/+1..+4/+5..+8), multiparious cows, week +2",41.2 lbs/day
same,Dry Matter Intake,"Pre/Post Trial #2 (75/75/100 g/day in wk −3..−1/+1..+4/+5..+8), multiparious cows, week +3",45.3 lbs/day
same,Dry Matter Intake,"Pre/Post Trial #2 (75/75/100 g/day in wk −3..−1/+1..+4/+5..+8), multiparious cows, week +4",49.8 lbs/day
same,Dry Matter Intake,"Pre/Post Trial #2 (75/75/100 g/day in wk −3..−1/+1..+4/+5..+8), multiparious cows, week +5",53.6 lbs/day
same,Dry Matter Intake,"Pre/Post Trial #2 (75/75/100 g/day in wk −3..−1/+1..+4/+5..+8), multiparious cows, week +6",54.2 lbs/day
same,Dry Matter Intake,"Pre/Post Trial #2 (75/75/100 g/day in wk −3..−1/+1..+4/+5..+8), multiparious cows, week +7",53.3 lbs/day
same,Dry Matter Intake,"Pre/Post Trial #2 (75/75/100 g/day in wk −3..−1/+1..+4/+5..+8), multiparious cows, week +8",55.0 lbs/day
same,Dry Matter Intake,"Pre/Post Trial #2 (75/75/100 g/day in wk −3..−1/+1..+4/+5..+8), multiparious cows, week −1",32.3 lbs/day
same,Dry Matter Intake,"Pre/Post Trial #2 (75/75/100 g/day in wk −3..−1/+1..+4/+5..+8), multiparious cows, week −2",36.3 lbs/day
same,Change in Dry Matter Feed Intake,"Pre/Post Trial #2 (75/75/100 g/day in wk −3..−1/+1..+4/+5..+8), multiparious cows, week −2 versus −1",−3.91 lbs/day
same,Dry Matter Intake,"Pre/Post Trial #2 (75/75/100 g/day in wk −3..−1/+1..+4/+5..+8), multiparious cows, week −3",31.9 lbs/day
same,Dry Matter Intake,"Pre/Post Trial #2 (75/75/100 g/day in wk −3..−1/+1..+4/+5..+8), multiparious cows, weeks +1 through +4",42.2 lbs/day
same,Dry Matter Intake,"Pre/Post Trial #2 (75/75/100 g/day in wk −3..−1/+1..+4/+5..+8), multiparious cows, weeks +1 through +8",48.2 lbs/day
same,Dry Matter Intake,"Pre/Post Trial #2 (75/75/100 g/day in wk −3..−1/+1..+4/+5..+8), multiparious cows, weeks +5 through +8",54.1 lbs/day
same,Dry Matter Intake,"Pre/Post Trial #2 (75/75/100 g/day in wk −3..−1/+1..+4/+5..+8), multiparious cows, weeks −3 through −1",33.2 lbs/day
same,decrease in dry matter feed intake,"average of means of Pre-Partum Trial #2, Pre/Post Trial #1 and Pre/Post Trial #2 versus Control Trial #2, multiparious cows, pre-partum period (weeks −3 through −1)",4.9%
